Laboratory results from PubChem BioAssay AID330 (DTP/NCI, 2004).
Where “and” joins values, the source holds several entries; their conditions need not be identical. Equal values may be shown once. Inconclusive results and toxic doses are left out.

Tested on: P388 leukemia ip, CD2F1 mice, survival T/C
Test: NCI In Vivo Anticancer Drug Screen. Data for tumor model P388 Leukemia (intraperitoneal) in CD2F1 (CDF1) mice
Details: endpoint: median survival time, higher = longer survival
Procedure, shortened: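 Mice carrying the transplanted tumor received test compound or vehicle. Survival was recorded in each group, and the value is the treated-group measurement divided by that of the vehicle-treated control group.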

[1] = dose: 25.0 mg/kg/injection, schedule: Q01DX009 (ip), vehicle: saline
[2] = dose: 50.0 mg/kg/injection, schedule: Q01DX009 (ip), vehicle: saline with Tween-80
[3] = dose: 50.0 mg/kg/injection, schedule: Q01DX009 (ip), vehicle: saline
[4] = dose: 100.0 mg/kg/injection, schedule: Q01DX009 (ip), vehicle: saline with Tween-80
[5] = dose: 200.0 mg/kg/injection, schedule: Q01DX009 (ip), vehicle: saline with Tween-80
[6] = dose: 50.0 mg/kg/injection, schedule: Q01DX009 (ip), vehicle: Klucel (hydroxypropylcellulose) (HPC)
[7] = dose: 100.0 mg/kg/injection, schedule: Q01DX009 (ip), vehicle: Klucel (hydroxypropylcellulose) (HPC)
[8] = dose: 200.0 mg/kg/injection, schedule: Q01DX009 (ip), vehicle: Klucel (hydroxypropylcellulose) (HPC)
[9] = dose: 100.0 mg/kg/injection, schedule: Q04DX003 (ip), vehicle: Klucel (hydroxypropylcellulose) (HPC)
[10] = dose: 50.0 mg/kg/injection, schedule: Q01DX005 (ip), vehicle: saline with Tween-80
[11] = dose: 100.0 mg/kg/injection, schedule: Q01DX005 (ip), vehicle: saline with Tween-80
[12] = dose: 60.0 mg/kg/injection, schedule: Q01DX005 (ip), vehicle: saline with Tween-80
[13] = dose: 120.0 mg/kg/injection, schedule: Q01DX005 (ip), vehicle: saline with Tween-80
[14] = dose: 240.0 mg/kg/injection, schedule: Q01DX005 (ip), vehicle: saline with Tween-80
[15] = dose: 50.0 mg/kg/injection, schedule: Q01DX005 (ip), vehicle: Klucel (hydroxypropylcellulose) (HPC)
[16] = dose: 100.0 mg/kg/injection, schedule: Q01DX005 (ip), vehicle: Klucel (hydroxypropylcellulose) (HPC)
[17] = dose: 200.0 mg/kg/injection, schedule: Q01DX005 (ip), vehicle: Klucel (hydroxypropylcellulose) (HPC)

SMILES: CCN(CC)CC(C)C1NS(=O)(=O)c2ccccc21 (stereo not given)
- T/C (dose: 1.56 mg/kg/injection, schedule: Q01DX009 (ip), vehicle: saline): 107 % of control
- T/C (dose: 3.12 mg/kg/injection, schedule: Q01DX009 (ip), vehicle: saline): 98 % of control
- T/C (dose: 6.25 mg/kg/injection, schedule: Q01DX009 (ip), vehicle: saline): 100 % of control
- T/C [1]: 88 % of control
- T/C [2]: 86 % of control
- T/C [3]: 87 % of control

SMILES: CCOC(=O)C1=C(C)N(Cc2ccccc2)C(C)=C(C(=O)OCC)C1(C)C
- T/C [4]: 104 % of control
- T/C [5]: 118 % of control
- T/C (dose: 400.0 mg/kg/injection, schedule: Q01DX009 (ip), vehicle: saline with Tween-80): 118 % of control

SMILES: [Ni+2].[S-]CC[S-]
- T/C (dose: 100.0 mg/kg/injection, schedule: Q04DX003 (ip), vehicle: saline with Tween-80): 92 % of control
- T/C (dose: 200.0 mg/kg/injection, schedule: Q04DX003 (ip), vehicle: saline with Tween-80): 108 % of control

SMILES: O=c1ssc(=Nc2ccccc2)n1-c1ccccc1
- T/C [6]: 109 % of control
- T/C [7]: 116 % of control and 118 % of control
- T/C [8]: 113 % of control and 117 % of control
- T/C (dose: 400.0 mg/kg/injection, schedule: Q01DX009 (ip), vehicle: Klucel (hydroxypropylcellulose) (HPC)): 124 % of control

SMILES: Cc1cc(=NO)cc(C)n1O
- T/C (dose: 25.0 mg/kg/injection, schedule: Q01DX005 (ip), vehicle: distilled water + alcohol): 113 % of control
- T/C (dose: 50.0 mg/kg/injection, schedule: Q01DX005 (ip), vehicle: distilled water + alcohol): 113 % of control and 123 % of control
- T/C (dose: 50.0 mg/kg/injection, schedule: Q01DX005 (ip), vehicle: water): 115 % of control
- T/C (dose: 100.0 mg/kg/injection, schedule: Q01DX005 (ip), vehicle: distilled water + alcohol): 121 % of control
- T/C (dose: 100.0 mg/kg/injection, schedule: Q01DX005 (ip), vehicle: water): 106 % of control
- T/C (dose: 200.0 mg/kg/injection, schedule: Q01DX005 (ip), vehicle: water): 118 % of control

SMILES: O=C1c2ccccc2C(=O)c2nc(CBr)c(CBr)nc21
- T/C (dose: 5.0 mg/kg/injection, schedule: Q01DX005 (ip), vehicle: saline): 100 % of control
- T/C (dose: 10.0 mg/kg/injection, schedule: Q01DX005 (ip), vehicle: saline): 100 % of control
- T/C (dose: 20.0 mg/kg/injection, schedule: Q01DX005 (ip), vehicle: saline): 97 % of control

SMILES: CCOC(=O)CC1CCCN1 (stereo not given)
- T/C (dose: 25.0 mg/kg/injection, schedule: Q01DX005 (ip), vehicle: saline): 110 % of control
- T/C (dose: 50.0 mg/kg/injection, schedule: Q01DX005 (ip), vehicle: saline): 101 % of control
- T/C (dose: 100.0 mg/kg/injection, schedule: Q01DX005 (ip), vehicle: saline): 97 % of control
- T/C (dose: 200.0 mg/kg/injection, schedule: Q01DX005 (ip), vehicle: saline): 106 % of control

SMILES: CNC1CCCc2c(O)cccc21 (stereo not given)
- T/C (dose: 50.0 mg/kg/injection, schedule: Q04DX003 (ip), vehicle: Klucel (hydroxypropylcellulose) (HPC)): 99 % of control
- T/C [9]: 101 % of control

SMILES: CC(/C=C/c1cccc(C)c1)=N\NC(N)=O
- T/C (dose: 60.0 mg/kg/injection, schedule: Q01DX005 (ip), vehicle: Klucel (hydroxypropylcellulose) (HPC)): 107 % of control
- T/C (dose: 120.0 mg/kg/injection, schedule: Q01DX005 (ip), vehicle: Klucel (hydroxypropylcellulose) (HPC)): 104 % of control
- T/C (dose: 240.0 mg/kg/injection, schedule: Q01DX005 (ip), vehicle: Klucel (hydroxypropylcellulose) (HPC)): 115 % of control

SMILES: CC(C)N(Cc1ccccc1)S(=O)(=O)c1n[nH]c(C(C)(C)C)n1
- T/C [10]: 94 % of control
- T/C [11]: 86 % of control

SMILES: COC1=C(O)C(=O)N(C)C(=O)C1
- T/C (dose: 0.93 mg/kg/injection, schedule: Q01DX005 (ip), vehicle: saline): 104 % of control
- T/C (dose: 1.87 mg/kg/injection, schedule: Q01DX005 (ip), vehicle: saline): 101 % of control
- T/C (dose: 3.75 mg/kg/injection, schedule: Q01DX005 (ip), vehicle: Klucel (hydroxypropylcellulose) (HPC)): 110 % of control
- T/C (dose: 3.75 mg/kg/injection, schedule: Q01DX005 (ip), vehicle: saline): 104 % of control

SMILES: COC(=O)c1cc(/C=C/c2ccccc2)[nH]c(=O)c1C#N
- T/C [12]: 106 % of control
- T/C [13]: 105 % of control
- T/C [14]: 98 % of control

SMILES: COC(=O)C1C2CCC1C2 (stereo not given)
- T/C (dose: 25.0 mg/kg/injection, schedule: Q01DX009 (ip), vehicle: other): 97 % of control
- T/C (dose: 50.0 mg/kg/injection, schedule: Q01DX009 (ip), vehicle: other): 110 % of control
- T/C (dose: 100.0 mg/kg/injection, schedule: Q01DX009 (ip), vehicle: other): 105 % of control
- T/C (dose: 200.0 mg/kg/injection, schedule: Q01DX009 (ip), vehicle: other): 107 % of control
- T/C (dose: 400.0 mg/kg/injection, schedule: Q01DX009 (ip), vehicle: other): 110 % of control

SMILES: C=CC(C)(C)C1Oc2cc(O)ccc2C(=O)C1c1ccc(OC)c(OC)c1O (stereo not given)
- T/C [9]: 92 % of control
- T/C (dose: 200.0 mg/kg/injection, schedule: Q04DX003 (ip), vehicle: Klucel (hydroxypropylcellulose) (HPC)): 100 % of control
- T/C (dose: 400.0 mg/kg/injection, schedule: Q04DX003 (ip), vehicle: Klucel (hydroxypropylcellulose) (HPC)): 92 % of control

SMILES: CC(Br)C(=O)c1ccc(OCc2ccccc2)cc1 (stereo not given)
- T/C [2]: 110 % of control
- T/C [4]: 124 % of control
- T/C [5]: 121 % of control

SMILES: CNC(C#N)C(O)c1ccccc1 (stereo not given)
- T/C (dose: 12.5 mg/kg/injection, schedule: Q01DX009 (ip), vehicle: saline): 92 % of control
- T/C [1]: 92 % of control
- T/C [3]: 93 % of control and 97 % of control

SMILES: CCn1c(-c2ccc(OC(C)=O)cc2)c(C)c2cc(OC(C)=O)ccc21
- T/C (dose: 25.0 mg/kg/injection, schedule: Q01DX005 (ip), vehicle: Klucel (hydroxypropylcellulose) (HPC)): 100 % of control
- T/C [15]: 101 % of control and 102 % of control
- T/C [16]: 95 % of control and 97 % of control
- T/C [17]: 90 % of control and 96 % of control
- T/C (dose: 400.0 mg/kg/injection, schedule: Q01DX005 (ip), vehicle: Klucel (hydroxypropylcellulose) (HPC)): 100 % of control

SMILES: CCn1c(=O)cc2n(C)c3ccccc3n2c1=O
- T/C [12]: 98 % of control
- T/C [13]: 94 % of control
- T/C [14]: 92 % of control

SMILES: CC(C)(C)c1cc(CCc2nc(CCc3cc(C(C)(C)C)c(O)c(C(C)(C)C)c3)nc(CCc3cc(C(C)(C)C)c(O)c(C(C)(C)C)c3)n2)cc(C(C)(C)C)c1O
- T/C [6]: 92 % of control
- T/C [7]: 88 % of control
- T/C [8]: 93 % of control

SMILES: CCC(CC)N(C)C(C)(C)CO
- T/C (dose: 50.0 mg/kg/injection, schedule: Q04DX003 (ip), vehicle: saline sonified): 96 % of control
- T/C (dose: 100.0 mg/kg/injection, schedule: Q04DX003 (ip), vehicle: saline sonified): 100 % of control

SMILES: CCCCCN1C(=O)C2C3CCC(O3)C2C1=O (stereo not given)
- T/C [15]: 109 % of control
- T/C [16]: 109 % of control

SMILES: C/C(=N\Nc1cc(C)c2cccc(C)c2n1)c1ccccn1
- T/C [10]: 105 % of control
- T/C [11]: 91 % of control
- T/C (dose: 200.0 mg/kg/injection, schedule: Q01DX005 (ip), vehicle: saline with Tween-80): 91 % of control

SMILES: ClCCN(CCCl)c1ccc(N=Cc2ccccc2)cc1
- T/C (dose: 1.56 mg/kg/injection, schedule: Q01DX009 (ip), vehicle: saline with Tween-80): 159 % of control and 167 % of control
- T/C (dose: 3.12 mg/kg/injection, schedule: Q01DX009 (ip), vehicle: saline with Tween-80): 179 % of control and 205 % of control
- T/C (dose: 6.25 mg/kg/injection, schedule: Q01DX009 (ip), vehicle: saline with Tween-80): 230 % of control

SMILES: O=c1oc(-c2cccc(-c3nc4c(c(=O)o3)CCS4)c2)nc2c1CCS2
- T/C [15]: 97 % of control
- T/C [16]: 100 % of control
- T/C [17]: 91 % of control
